Experimental data as given in paper PMC11443511, “Discovery of anti-infective compounds against Mycobacterium marinum after biotransformation of simple natural stilbenes by a fungal secretome” (Frontiers in Microbiology, 2024).
“Also recorded” adds a separate entry of the source. Read-outs that look alike come from different tables or passages of the source.

Experiments:
[1] = system: Mycobacterium marinum (Mm) in infection of Dictyostelium discoideum (Mm-inf); assay: Anti-infective assay, growth of Mm during infection of Dd (Mm-inf, luminescence); type: cell-based; conditions: for IC50: 72 h; for activity at 20 µM: vehicle = 1, baseline = 0, hit cut-off <0.5; for pro-infective effect on Mm-inf (in words): between 0.4 and 3.3 μM
[2] = system: Mycobacterium marinum in broth (Mm-broth); assay: Antibacterial assay, growth of Mm in broth (Mm-broth, luminescence); type: cell-based; conditions: for IC50 / MIC: Mycobacterium marinum; for IC50: read-out: IC50 Mm-broth; for activity on Mm-broth (in words): at respective maximal tested concentration; for activity on Mm in broth (in words): screen at 20 μM or dose-response curve; for normalized residual growth of Mm-broth: 20 μM, vehicle = 1, baseline = 0
[3] = system: Dictyostelium discoideum (Dd-inf); assay: microbe, parasite or virus in culture; type: cell-based; conditions: for normalized residual growth of Dd-inf: 20 μM, vehicle = 1, baseline = 0; for IC50: Dictyostelium discoideum, 72 h, read-out: IC50 Dd-inf (Dd growth)
[4] = system: Mm; assay: Checkerboard assay for synergy with antibiotics
From the text: We tested this compound for synergy with rifampicin and isoniazid in a checkerboard assay and additionally tested for synergy between rifampicin and isoniazid.

[5] = system: intracellular Mm; assay: Anti-infective assay with high-content microscopy, area of intracellular Mm; conditions: 20, 10, 2.5 μM, up to 48 h
Method: (§1) To monitor both the host and pathogen during the course of infection in a quantitative manner, Dd Ax2(ka) cells expressing mCherry knocked-in at the act5 locus ([Paschke et al., 2019]) were infected as described above with Mm WT stably expressing GFP (Msp:12-GFP). As described above, the day before the experiment, 10^7 amoebae were plated in a 10 cm Petri dish. On the day of the experiment, infection was performed, as described above, in HL5-C at MOI 25 by spinoculation. This was followed by eight washes in HL5-C to clear a maximum of non-internalized bacteria. The infected amoebae were detached mechanically and resuspended in HL5-C with 0.75 U/mL penicillin and 0.75 μg/mL of streptomycin (Gibco). Compounds were diluted in HL5-C to a 10x stock of the final assay concentration and pre-plated in 20 μL into the respective wells of a 96-well μ-plate (iBIDI 96-well μ-plate, 89,626). Subsequently, 7,500 cells per well were added in a volume of 180 μL. Every condition has been plated in at least three technical replicates and at least three biological replicates. The 96-well plate was sealed with a gas permeable seal (4titude, 4ti-0516/96) and centrifuged briefly.
(§2) Microscopy images were acquired at 25°C with a 40X plan Apo objective at selected time points over 48 h on the ImageXpress Micro C® automated microscope (Molecular Devices) in wide field mode. Focus was obtained automatically by autofocusing on the well bottom and plate bottom, at every well and every time point. In a grid of 4 × 5, 20 images per well, corresponding to a range of 500–6,000 cells, have been taken using the Texas-Red channel for Dd expressing mCherry and FITC channel for Mm expressing GFP in each experiment. Image analysis was performed using MetaXpress Custom Module editor software. Objects were effectively segmented by size and intensity. More precisely, amoebae were segmented using a “find blob module” using the Texas-Red channel. To segment the bacteria, the FITC image was first subjected to a light deconvolution with a top hat filter and then segmented using a “find blob module.” Intracellular bacteria and infected amoebae were determined by associating the mask of the amoebae and the bacteria. Several parameters such as intracellular and extracellular bacterial area sum, amoebae area sum, averaged and integrated fluorescence intensity and feature counts of bacteria and amoeba were extracted. The growth curves for the area sum of uninfected amoebae, infected amoebae and intracellular bacteria of independent biological replicates were averaged and plotted using GraphPad Prism (Version 8.0.1).
(§3) Both uninfected Dd and Dd infected with Mm were treated with 20, 10 or 2.5 μM of 17 or 19 and the infection was monitored by collecting microscopy images at five time points for up to 48 h.

[6] = system: Dd Ax2(ka) cells; assay: Anti-infective assay with high-content microscopy, area of uninfected and infected Dd; conditions: 20, 10, 2.5 μM, up to 48 h
Method: as §1, §2, §3

[7] = system: Mm; conditions: MIC90 from clinical isolates, cited from earlier work
[8] = read-out: IC50 Mm-inf, 72 h, AUC of luminescence normalized to vehicle, 4PL regression
[9] = at respective maximal tested concentration
[10] = 20 μM, read-out: normalized residual growth of Mm-inf
[11] = AUC of luminescence normalized to vehicle, 4PL regression, read-out: IC50 Mm-inf
[12] = read-out: normalized residual growth of Mm-inf, 20 μM
[13] = converted from μM, read-out: MIC in infection
[14] = lowest concentration with normalized residual growth plus one SD ≤0, 72 h, read-out: MIC Mm-inf
[15] = ref Woods and Clinical and Laboratory Standards Institute, 2011
[16] = 72 h, 7H9 broth, 32°C, read-out: MIC Mm-broth

COc1nc2ccc(Br)cc2cc1[C@@H](c1ccccc1)[C@@](O)(CCN(C)C)c1cccc2ccccc12 [bedaquiline]
IC50 [1, 8]: 4 µM | activity on Mm-inf (in words) [1, 9]: sterilizing activity | IC50 ([2]; 72 h): 1.6 µM | MIC ([2]; 72 h, read-out: MIC Mm-broth): 3.3 µM | activity on Mm-broth (in words) [2]: sterilizing activity

Oc1ccc(/C=C/c2cc(O)cc(O)c2)cc1 [compound 1, resveratrol]
activity on Mm-inf (in words) ([1]; dose-response curve): lack of activity

COc1cc(/C=C/c2ccc(O)cc2)cc(OC)c1 [compound 2, pterostilbene]
activity at 20 µM [1, 10]: 28% | IC50 [1, 11]: 19.8 µM | activity on Mm-inf (in words) ([1]; dose-response curve): validated anti-infectives without antibiotic properties | activity on Mm in broth (in words) [2]: inactive on Mm in broth | normalized residual growth of Dd-inf [3]: –0.16 | IC50 ([3]; dose-response curve): 11.1 µM

COc1cc(O)cc(/C=C/c2ccc(O)cc2)c1 [compound 3, pinostilbene]
activity on Mm-inf (in words) ([1]; dose-response curve): active on Mm-inf, at high concentrations (>20 μM)

COc1cc(/C=C/c2cc(O)cc(O)c2)ccc1O [compound 4, isorhapontigenin]
activity on Mm-inf (in words) ([1]; dose-response curve): lack of activity

Oc1ccc(C2Oc3ccc(C=Cc4cc(O)cc(O)c4)cc3C2c2cc(O)cc(O)c2)cc1 (stereo not drawn) [compound 11, trans-δ-viniferin]
activity at 20 µM [1, 10]: 110% | normalized residual growth of Mm-broth [2]: 1

COc1cc(OC)cc(C2c3cc(C=Cc4cc(O)cc(O)c4)ccc3OC2c2ccc(O)cc2)c1 (stereo not shown) [compound 17]
IC50 [1, 11]: 18.1 µM | activity on Mm-inf (in words) ([1]; at 20 μM): passed again the 0.5 cut-off | activity on Mm-inf (in words) ([1]; dose-response curve): dose-dependent activity; also recorded: validated anti-infectives without antibiotic properties | IC50 ([1]; read-out: IC50 Mm-inf, AUC of luminescence normalized to vehicle, 4PL regression): 18.9 µM | activity at 20 µM [1, 12]: 34% | activity on Mm in broth (in words) [2]: no activity on Mm in broth; also recorded: without antibiotic activity; also recorded: did not show any growth inhibition | synergy with rifampicin and isoniazid (in words) [4]: did not find striking synergy | normalized residual growth of Dd-inf [3]: 0.91 | growth of intracellular Mm (segmented area, in words) [5]: this effect was weaker | growth of infected Dd (segmented area, in words) [6]: this effect was weaker

COc1cc(C=Cc2ccc3c(c2)C(c2cc(O)cc(O)c2)C(c2ccc(O)cc2)O3)cc(OC)c1 (stereo not shown) [compound 19]
IC50 [1, 11]: 9 µM | activity on Mm-inf (in words) ([1]; at 20 μM): passed again the 0.5 cut-off | activity on Mm-inf (in words) ([1]; dose-response curve): dose-dependent activity; also recorded: validated anti-infectives without antibiotic properties | activity at 20 µM [1, 12]: -32% | activity on Mm in broth (in words) [2]: no activity on Mm in broth; also recorded: without antibiotic activity; also recorded: did not show any growth inhibition | normalized residual growth of Dd-inf [3]: –0.22 | IC50 ([3]; dose-response curve): 12.1 µM | lowest measured value of Dd-inf (normalized residual growth) ([3]; dose-response curve): −0.40 | growth of intracellular Mm (segmented area, in words) [5]: almost completely inhibited | growth of infected Dd (segmented area, in words) [6]: almost completely inhibited | growth of uninfected Dd (segmented area, in words) [6]: significantly reduced

COc1cc(C=Cc2ccc3c(c2)C(c2cc(OC)cc(OC)c2)C(c2ccc(O)cc2)O3)cc(OC)c1 (stereo not shown) [compound 21]
activity at 20 µM [1, 10]: 140% | normalized residual growth of Mm-broth [2]: 1

Oc1ccc([C@H]2Oc3ccc(/C=C\c4cc(O)cc(O)c4)cc3[C@@H]2c2cc(O)cc(O)c2)cc1 [compound 55]
activity on Mm-inf (in words) ([1]; at 20 μM): inactive

COc1cc(OC)cc([C@H]2c3cc(/C=C\c4cc(O)cc(O)c4)ccc3O[C@@H]2c2ccc(O)cc2)c1 [compound 56]
IC50 [1, 8]: 19.7 µM

COc1cc(/C=C\c2ccc3c(c2)[C@H](c2cc(O)cc(O)c2)[C@@H](c2ccc(O)cc2)O3)cc(OC)c1 [compound 57]
IC50 [1, 8]: 9.8 µM

COc1cc(/C=C\c2ccc3c(c2)[C@H](c2cc(OC)cc(OC)c2)[C@@H](c2ccc(O)cc2)O3)cc(OC)c1 [compound 58]
activity on Mm-inf (in words) ([1]; at 20 μM): inactive

COc1ccc([C@H]2Oc3ccc(/C=C/c4cc(O)cc(O)c4)cc3[C@@H]2c2cc(O)cc(OC)c2)cc1 [compound 62]
IC50 [1, 11]: 13.4 µM | lowest measured value of Dd-inf (normalized residual growth) ([3]; dose-response curve): 0.42

COc1ccc([C@H]2Oc3ccc(/C=C/c4cc(O)cc(OC)c4)cc3[C@@H]2c2cc(O)cc(O)c2)cc1 [compound 63]
IC50 [1, 11]: 8.6 µM | lowest measured value of Dd-inf (normalized residual growth) ([3]; dose-response curve): 0.8 | growth of intracellular Mm (segmented area, in words) [5]: infection was well controlled | growth of uninfected Dd (segmented area, in words) [6]: only a slight growth inhibition at 20 μM

COc1cc(O)cc(/C=C/c2ccc3c(c2)[C@H](c2cc(O)cc(OC)c2)[C@@H](c2ccc(O)cc2)O3)c1 [compound 64]
IC50 [1, 11]: 8 µM | lowest measured value of Dd-inf (normalized residual growth) ([3]; dose-response curve): 0.62 | growth of intracellular Mm (segmented area, in words) [5]: infection was well controlled | growth of uninfected Dd (segmented area, in words) [6]: only a slight growth inhibition at 20 μM

COc1cc([C@H]2Oc3c(OC)cc(/C=C/c4cc(O)cc(O)c4)cc3[C@@H]2c2cc(O)cc(O)c2)ccc1O [compound 65]
activity on Mm-inf (in words) ([1]; at 20 μM): pro-infective activity

Oc1ccc(-c2oc3ccc(/C=C/c4cc(O)cc(O)c4)cc3c2-c2cc(O)cc(O)c2)cc1 [compound 66]
IC50 [1, 8]: 29.7 µM | activity at 20 µM [1, 12]: 55% | IC50 [3]: 26.2 µM

COc1cc(OC)cc(-c2c(-c3ccc(O)cc3)oc3ccc(/C=C/c4cc(O)cc(O)c4)cc23)c1 [compound 67]
IC50 [1, 8]: 19.6 µM

COc1cc(/C=C/c2ccc3oc(-c4ccc(O)cc4)c(-c4cc(O)cc(O)c4)c3c2)cc(OC)c1 [compound 68]
IC50 [1, 8]: 20.1 µM

COc1cc(/C=C/c2ccc3oc(-c4ccc(O)cc4)c(-c4cc(OC)cc(OC)c4)c3c2)cc(OC)c1 [compound 69]
activity on Mm-inf (in words) ([1]; dose-response curve): remained inactive

CC[C@@H](CO)NCCN[C@@H](CC)CO [ethambutol, reference compound]
IC50 [1, 8]: 7 µM | activity on Mm-inf (in words) [1, 9]: sterilizing activity | MIC [1, 13]: 6.1 µg/mL | MIC [1, 14]: 30 µM | breakpoint of antibacterial susceptibility for Mm [7, 15]: 4 µg/mL | IC50 ([2]; 72 h): 1 µM | MIC [2, 16]: 3.3 µM | activity on Mm-broth (in words) [2]: sterilizing activity

CCc1cc(C(N)=S)ccn1 [ethionamide]
IC50 [1, 8]: 4 µM | activity on Mm-inf (in words) [1, 9]: sterilizing activity | breakpoint of antibacterial susceptibility for Mm ([7]; ref Lorian, 2005): 5 µg/mL | IC50 ([2]; 72 h): 0.8 µM | MIC ([2]; 72 h, read-out: MIC Mm-broth): 3.3 µM | activity on Mm-broth (in words) [2]: sterilizing activity

NNC(=O)c1ccncc1 [isoniazid, reference compound]
IC50 [1, 8]: 11 µM | activity on Mm-inf (in words) [1, 9]: sterilizing activity | pro-infective effect on Mm-inf (in words) [1]: slight pro-infective effect | MIC [1, 13]: 4.1 µg/mL | MIC [1, 14]: 30 µM | IC50 ([2]; 72 h): 10 µM | MIC [2, 16]: 30 µM | MIC ([2]; converted from μM, read-out: MIC in broth): 4.1 µg/mL | activity on Mm-broth (in words) [2]: sterilizing activity

NC(=O)c1cnccn1 [pyrazinamide, reference compound]
pro-infective effect on Mm-inf (in words) [1]: slight pro-infective effect | activity on Mm-inf (in words) ([1]; dose-response curve): lack of activity; also recorded: no activity against Mm | activity on Mm in broth (in words) [2]: no activity against Mm

CO[C@H]1/C=C/O[C@@]2(C)Oc3c(C)c(O)c4c(c3C2=O)C2=NC3(CCN(CC(C)C)CC3)NC2=C(NC(=O)/C(C)=C\C=C\[C@H](C)[C@H](O)[C@@H](C)[C@@H](O)[C@@H](C)[C@H](OC(C)=O)[C@@H]1C)C4=O [rifabutin]
IC50 [1, 8]: 0.2 µM | activity on Mm-inf (in words) [1, 9]: sterilizing activity | breakpoint of antibacterial susceptibility for Mm [7, 15]: 2 µg/mL | IC50 ([2]; 72 h): 0.03 µM | MIC ([2]; 72 h, read-out: MIC Mm-broth): 0.01 µM | activity on Mm-broth (in words) [2]: sterilizing activity | activity on Dd growth, Dd-inf (in words) ([3]; dose-response curve): affected amoebae growth slightly at the highest tested concentrations

CO[C@H]1/C=C/O[C@@]2(C)Oc3c(C)c(O)c4c(O)c(c(/C=N/N5CCN(C)CC5)c(O)c4c3C2=O)NC(=O)/C(C)=C\C=C\[C@H](C)[C@H](O)[C@@H](C)[C@@H](O)[C@@H](C)[C@H](OC(C)=O)[C@@H]1C [rifampicin, reference compound]
IC50 [1, 8]: 5 µM | activity on Mm-inf (in words) [1, 9]: sterilizing activity | MIC [1, 14]: 10 µM | IC50 ([2]; 72 h): 0.1 µM | MIC [2, 16]: 1.1 µM | activity on Mm-broth (in words) [2]: sterilizing activity | activity on Dd growth, Dd-inf (in words) ([3]; dose-response curve): affected amoebae growth slightly at the highest tested concentrations
